According to PubChem BioAssay AID248 (DTP/NCI, 2004):
“And” between values parts separate entries of the source, which are not always exact repeats. Equal entries are not always repeated. Toxic doses and inconclusive results are not listed. Cut-off read from the data, not from the text of the source: active = T/C of 150% or more; inactive = T/C below 125%.

Test system: L1210 leukemia ip in BDF1 mice, survival T/C
Assay: NCI In Vivo Anticancer Drug Screen. Data for tumor model L1210 Leukemia (intraperitoneal) in B6D2F1 (BDF1) mice
Settings: endpoint: mean survival time, higher = longer survival
Method in brief: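 Transplanted-tumor mice were given test agent; controls received vehicle only. Survival readings from the two groups were divided (treated over control).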

[1] = dose: 100.0 mg/kg/injection, schedule: Q01DX001 (ip), vehicle: saline
[2] = dose: 100.0 mg/kg/injection, schedule: Q01DX009 (ip), vehicle: Klucel (hydroxypropylcellulose) (HPC)
[3] = dose: 200.0 mg/kg/injection, schedule: Q01DX009 (ip), vehicle: Klucel (hydroxypropylcellulose) (HPC)
[4] = dose: 400.0 mg/kg/injection, schedule: Q01DX009 (ip), vehicle: Klucel (hydroxypropylcellulose) (HPC)

Measured: T/C

S=c1[nH]ccs1
inactive: dose: 25.0 mg/kg/injection, schedule: Q01DX001 (ip), vehicle: saline 100 % of control | dose: 50.0 mg/kg/injection, schedule: Q01DX001 (ip), vehicle: saline 98 % of control | [1] 98 % of control and 99 % of control

O=C(C1=C(C(=O)c2ccccc2)C2C=CC1C2)c1ccccc1
inactive: dose: 75.0 mg/kg/injection, schedule: Q04DX003 (ip), vehicle: Klucel (hydroxypropylcellulose) (HPC) 96 % of control | dose: 150.0 mg/kg/injection, schedule: Q04DX003 (ip), vehicle: Klucel (hydroxypropylcellulose) (HPC) 94 % of control | dose: 300.0 mg/kg/injection, schedule: Q04DX003 (ip), vehicle: Klucel (hydroxypropylcellulose) (HPC) 89 % of control

CC(=O)OCCC/C(=C/c1ccc2c(c1)OCO2)[N+](=O)[O-]
inactive: [1] 104 % of control | dose: 200.0 mg/kg/injection, schedule: Q01DX001 (ip), vehicle: saline 101 % of control | dose: 400.0 mg/kg/injection, schedule: Q01DX001 (ip), vehicle: saline 98 % of control

CN1C(=O)CN=C(c2ccccc2)c2cc(Cl)ccc21
inactive: dose: 12.5 mg/kg/injection, schedule: Q01DX009 (ip), vehicle: Klucel (hydroxypropylcellulose) (HPC) 97 % of control | dose: 25.0 mg/kg/injection, schedule: Q01DX009 (ip), vehicle: Klucel (hydroxypropylcellulose) (HPC) 95 % of control | dose: 25.0 mg/kg/injection, schedule: Q04DX003 (ip), vehicle: Klucel (hydroxypropylcellulose) (HPC) 93 % of control | dose: 50.0 mg/kg/injection, schedule: Q01DX009 (ip), vehicle: Klucel (hydroxypropylcellulose) (HPC) 100 % of control | dose: 50.0 mg/kg/injection, schedule: Q04DX003 (ip), vehicle: Klucel (hydroxypropylcellulose) (HPC) 93 % of control | [2] 100 % of control and 103 % of control | dose: 100.0 mg/kg/injection, schedule: Q04DX003 (ip), vehicle: Klucel (hydroxypropylcellulose) (HPC) 110 % of control and 93 % of control | [3] 100 % of control and 97 % of control | dose: 200.0 mg/kg/injection, schedule: Q04DX003 (ip), vehicle: Klucel (hydroxypropylcellulose) (HPC) 102 % of control and 110 % of control | [4] 100 % of control | dose: 400.0 mg/kg/injection, schedule: Q04DX003 (ip), vehicle: Klucel (hydroxypropylcellulose) (HPC) 88 % of control

Cc1c(C(=O)c2ccc3c(c2)OCO3)ccc2c1OCO2
inactive: dose: 100.0 mg/kg/injection, schedule: Q01DX001 (ip), vehicle: carboxymethylcellulose (CMC) 100 % of control | dose: 200.0 mg/kg/injection, schedule: Q01DX001 (ip), vehicle: carboxymethylcellulose (CMC) 100 % of control | dose: 400.0 mg/kg/injection, schedule: Q01DX001 (ip), vehicle: carboxymethylcellulose (CMC) 96 % of control

CCC(C(=O)NNC(=O)c1cc(OC)c(OC)c(OC)c1)c1ccccc1 (stereo not drawn)
inactive: dose: 100.0 mg/kg/injection, schedule: Q01DX001 (ip), vehicle: saline with Tween-80 96 % of control | dose: 100.0 mg/kg/injection, schedule: Q04DX002 (ip), vehicle: saline with Tween-80 97 % of control and 101 % of control | dose: 100.0 mg/kg/injection, schedule: Q04DX003 (ip), vehicle: saline with Tween-80 100 % of control and 90 % of control | dose: 200.0 mg/kg/injection, schedule: Q01DX001 (ip), vehicle: saline with Tween-80 98 % of control | dose: 200.0 mg/kg/injection, schedule: Q04DX002 (ip), vehicle: saline with Tween-80 97 % of control and 98 % of control | dose: 200.0 mg/kg/injection, schedule: Q04DX003 (ip), vehicle: saline with Tween-80 93 % of control and 104 % of control | dose: 400.0 mg/kg/injection, schedule: Q01DX001 (ip), vehicle: saline with Tween-80 93 % of control | dose: 400.0 mg/kg/injection, schedule: Q04DX002 (ip), vehicle: saline with Tween-80 101 % of control and 90 % of control | dose: 400.0 mg/kg/injection, schedule: Q04DX003 (ip), vehicle: saline with Tween-80 92 % of control and 93 % of control

Cc1ccc(N=Nc2ccc(C)cc2NC(=O)c2cccc3ccccc23)cc1
inactive: [2] 92 % of control | dose: 100.0 mg/kg/injection, schedule: Q04DX002 (ip), vehicle: Klucel (hydroxypropylcellulose) (HPC) 104 % of control | [3] 100 % of control | dose: 200.0 mg/kg/injection, schedule: Q04DX002 (ip), vehicle: Klucel (hydroxypropylcellulose) (HPC) 96 % of control | [4] 95 % of control | dose: 400.0 mg/kg/injection, schedule: Q04DX002 (ip), vehicle: Klucel (hydroxypropylcellulose) (HPC) 93 % of control
